Measurements published in patent publication US10259810B2, “N-sulfonylated pyrazolo[3,4-b]pyridin-6-carboxamides and method of use” (AbbVie S.à.r.l., priority 2015, dated 2019).

What was measured:
[1] = target: T1, ΔF508-CFTR (Homo sapiens, UniProt P13569, DEL508-508); assay: CFTR cell surface levels using HRP-tagged ΔF508-CFTR expressing CFBE cells, in the presence of a co-corrector; type: cell-based; conditions: HRP-tagged ΔF508-CFTR CFBE cells, in the presence of 3 μM co-corrector; for EC50: read-out: EC50
T1 construct: host or cells: CFBE41o-, doxycycline-inducible
T1 sequence (P13569 with tags, fused parts or gaps DEL508-508): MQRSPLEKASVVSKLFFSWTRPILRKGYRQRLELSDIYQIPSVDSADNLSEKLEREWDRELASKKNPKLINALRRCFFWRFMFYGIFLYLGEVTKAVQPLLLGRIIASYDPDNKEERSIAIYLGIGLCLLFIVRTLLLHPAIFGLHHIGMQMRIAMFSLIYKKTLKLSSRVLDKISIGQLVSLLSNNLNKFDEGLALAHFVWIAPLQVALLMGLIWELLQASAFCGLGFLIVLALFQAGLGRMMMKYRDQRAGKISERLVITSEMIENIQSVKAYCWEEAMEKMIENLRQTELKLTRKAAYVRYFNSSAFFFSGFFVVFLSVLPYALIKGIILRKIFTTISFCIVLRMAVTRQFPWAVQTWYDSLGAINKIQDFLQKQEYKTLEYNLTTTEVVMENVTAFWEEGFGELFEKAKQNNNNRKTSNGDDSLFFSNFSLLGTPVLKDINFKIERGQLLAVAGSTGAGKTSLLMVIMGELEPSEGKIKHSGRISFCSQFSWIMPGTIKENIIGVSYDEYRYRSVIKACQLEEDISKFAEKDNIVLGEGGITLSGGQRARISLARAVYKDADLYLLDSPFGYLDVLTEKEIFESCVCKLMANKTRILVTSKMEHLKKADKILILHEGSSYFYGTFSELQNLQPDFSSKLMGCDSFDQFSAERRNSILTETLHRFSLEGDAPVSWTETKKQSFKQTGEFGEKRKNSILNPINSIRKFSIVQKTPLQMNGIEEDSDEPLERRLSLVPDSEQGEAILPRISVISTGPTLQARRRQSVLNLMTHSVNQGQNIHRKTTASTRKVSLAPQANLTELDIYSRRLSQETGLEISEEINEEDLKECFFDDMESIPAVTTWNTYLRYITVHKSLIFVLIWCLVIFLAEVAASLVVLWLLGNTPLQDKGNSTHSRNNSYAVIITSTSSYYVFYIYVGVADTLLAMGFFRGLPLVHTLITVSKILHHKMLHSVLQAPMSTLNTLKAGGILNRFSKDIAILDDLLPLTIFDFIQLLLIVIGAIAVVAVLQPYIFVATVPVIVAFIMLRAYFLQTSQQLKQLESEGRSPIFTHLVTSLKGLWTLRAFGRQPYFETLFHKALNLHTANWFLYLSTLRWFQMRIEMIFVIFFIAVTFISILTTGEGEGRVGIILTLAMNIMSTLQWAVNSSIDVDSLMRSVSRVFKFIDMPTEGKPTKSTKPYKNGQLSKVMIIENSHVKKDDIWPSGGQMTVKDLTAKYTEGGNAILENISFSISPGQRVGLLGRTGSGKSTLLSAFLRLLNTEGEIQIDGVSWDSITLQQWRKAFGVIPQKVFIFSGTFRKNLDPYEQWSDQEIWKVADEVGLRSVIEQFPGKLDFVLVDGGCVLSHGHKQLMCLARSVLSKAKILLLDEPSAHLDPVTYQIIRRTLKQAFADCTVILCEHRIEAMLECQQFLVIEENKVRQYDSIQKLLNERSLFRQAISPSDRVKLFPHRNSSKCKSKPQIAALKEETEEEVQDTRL
Method in brief: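 Chemiluminescent read-out of surface HRP (15 min, dark) after PBS washes. Activity is normalized as 100×(sample−DMSO)/(3 μM co-corrector alone−DMSO).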

[2] = target: T1, ΔF508-CFTR; assay: CFTR cell surface levels using HRP-tagged ΔF508-CFTR expressing CFBE cells, intrinsic corrector capacity; type: cell-based; parameters: % Activation: concentration or dose not given beside the values; conditions: HRP-tagged ΔF508-CFTR expressing CFBE41o- cells, compound alone (intrinsic corrector capacity), 20 hours at 33° C.; for EC50: read-out: EC50
Method in brief: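 Read-out: chemiluminescent HRP activity of ECL4-HRP-tagged ΔF508-CFTR at the cell surface, 15 min substrate in dark. Normalized as 100×(sample−DMSO)/(positive control−DMSO).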

SMILES	% Activation [1]	EC50 [1]	% Activation [2]	EC50 [2]
CC(C)c1nn(-c2cccc(C(F)(F)F)c2)c2nc(C(=O)NS(C)(=O)=O)cc(-c3ccc(N4CCC(C#N)CC4)nc3)c12 [Compound 124, 4-[6-(4-cyanopiperidin-1-yl)pyridin-3-yl]-N-(methanesulfonyl)-3-(propan-2-yl)-1-[3-(trifluoromethyl)phenyl]-1H-pyrazolo[3,4-b]pyridine-6-carboxamide]	447.23%	312 nM	288.1%	545 nM
CC(C)c1nn(-c2cccc(N(C)C)n2)c2nc(C(=O)NS(C)(=O)=O)cc(-c3ccc(N4CCOCC4)cc3)c12 [Compound 125, 1-[6-(dimethylamino)pyridin-2-yl]-N-(methanesulfonyl)-4-[4-(morpholin-4-yl)phenyl]-3-(propan-2-yl)-1H-pyrazolo[3,4-b]pyridine-6-carboxamide]	520.33%	463 nM	369.87%	988 nM
CC(C)c1nn(-c2cccc(OC(F)(F)F)c2)c2nc(C(=O)NS(C)(=O)=O)cc(-c3ccc(N4CCOCC4)cc3)c12 [Compound 126, N-(methanesulfonyl)-4-[4-(morpholin-4-yl)phenyl]-3-(propan-2-yl)-1-[3-(trifluoromethoxy)phenyl]-1H-pyrazolo[3,4-b]pyridine-6-carboxamide]	487.53%	322 nM	309.17%	597 nM
CC(C)c1nn(-c2ccc(F)c(F)c2)c2nc(C(=O)NS(C)(=O)=O)cc(-c3ccc(N4CCOCC4)cc3)c12 [Compound 127, 1-(3,4-difluorophenyl)-N-(methanesulfonyl)-4-[4-(morpholin-4-yl)phenyl]-3-(propan-2-yl)-1H-pyrazolo[3,4-b]pyridine-6-carboxamide]	449.1%	252 nM	301.45%	518 nM
COc1cc(F)cc(-n2nc(C)c3c(-c4c(F)cc(OC)cc4F)cc(C(=O)NS(C)(=O)=O)nc32)c1 [Compound 129, 4-(2,6-difluoro-4-methoxyphenyl)-1-(3-fluoro-5-methoxyphenyl)-N-(methanesulfonyl)-3-methyl-1H-pyrazolo[3,4-b]pyridine-6-carboxamide]	307.3%	790 nM	187.5%	1330 nM
CC(C)c1nn(-c2cc(F)cc(F)c2)c2nc(C(=O)NS(C)(=O)=O)cc(-c3ccc(N4CCC(C#N)CC4)cc3)c12 [Compound 130, 4-[4-(4-cyanopiperidin-1-yl)phenyl]-1-(3,5-difluorophenyl)-N-(methanesulfonyl)-3-(propan-2-yl)-1H-pyrazolo[3,4-b]pyridine-6-carboxamide]	496.9%	540 nM	318.25%	541 nM
CC(C)c1nn(-c2cccc(F)c2)c2nc(C(=O)NS(C)(=O)=O)cc(-c3ccc(N4CCC(C#N)CC4)cc3)c12 [Compound 131, 4-[4-(4-cyanopiperidin-1-yl)phenyl]-1-(3-fluorophenyl)-N-(methanesulfonyl)-3-(propan-2-yl)-1H-pyrazolo[3,4-b]pyridine-6-carboxamide]	465.1%	581 nM	314.35%	430 nM
COCCN(C)c1ccc(-c2cc(C(=O)NS(C)(=O)=O)nc3c2c(C(C)C)nn3-c2cccc(C(F)(F)F)c2)cc1 [Compound 132, N-(methanesulfonyl)-4-{4-[(2-methoxyethyl)(methyl)amino]phenyl}-3-(propan-2-yl)-1-[3-(trifluoromethyl)phenyl]-1H-pyrazolo[3,4-b]pyridine-6-carboxamide]	417.2%	882 nM	244%	1270 nM
CC(C)c1nn(-c2cccc(C(F)(F)F)c2)c2nc(C(=O)NS(C)(=O)=O)cc(-c3ccc(N(C)C4CCOCC4)nc3)c12 [Compound 133, N-(methanesulfonyl)-4-{6-[methyl(oxan-4-yl)amino]pyridin-3-yl}-3-(propan-2-yl)-1-[3-(trifluoromethyl)phenyl]-1H-pyrazolo[3,4-b]pyridine-6-carboxamide]	417.7%	336 nM	222.33%	413 nM
CC(C)c1nn(-c2ccc(F)cc2)c2nc(C(=O)NS(C)(=O)=O)cc(-c3cnc(N(C)C4CCOCC4)nc3)c12 [Compound 134, 1-(4-fluorophenyl)-N-(methanesulfonyl)-4-{2-[methyl(oxan-4-yl)amino]pyrimidin-5-yl}-3-(propan-2-yl)-1H-pyrazolo[3,4-b]pyridine-6-carboxamide]	435.8%	237 nM	229.87%	465 nM
CC(C)c1nn(-c2cccc(C(F)(F)F)c2)c2nc(C(=O)NS(C)(=O)=O)cc(-c3ccc(N4CCC(C#N)CC4)cc3)c12 [Compound 135, 4-[4-(4-cyanopiperidin-1-yl)phenyl]-N-(methanesulfonyl)-3-(propan-2-yl)-1-[3-(trifluoromethyl)phenyl]-1H-pyrazolo[3,4-b]pyridine-6-carboxamide]	512.9%	373 nM	299.63%	696 nM
CC1(c2nn(-c3ccccc3)c3nc(C(=O)NS(C)(=O)=O)cc(-c4ccc(N5CCOCC5)cc4)c23)CCC1 [Compound 137, N-(methanesulfonyl)-3-(1-methylcyclobutyl)-4-[4-(morpholin-4-yl)phenyl]-1-phenyl-1H-pyrazolo[3,4-b]pyridine-6-carboxamide]	339.7%	638 nM	131.8%	1170 nM
CCS(=O)(=O)NC(=O)c1cc(-c2ccc(N3CCOCC3)cc2)c2c(C3(C)CCC3)nn(-c3ccccc3)c2n1 [Compound 138, N-(ethanesulfonyl)-3-(1-methylcyclobutyl)-4-[4-(morpholin-4-yl)phenyl]-1-phenyl-1H-pyrazolo[3,4-b]pyridine-6-carboxamide]	433.83%	236 nM	252.9%	334 nM
CC(C)c1nn(-c2ccc(F)cc2F)c2nc(C(=O)NS(C)(=O)=O)cc(-c3cnc(N4CCC(C#N)CC4)nc3)c12 [Compound 139, 4-[2-(4-cyanopiperidin-1-yl)pyrimidin-5-yl]-1-(2,4-difluorophenyl)-N-(methanesulfonyl)-3-(propan-2-yl)-1H-pyrazolo[3,4-b]pyridine-6-carboxamide]	335.5%	765 nM	163.83%	806 nM
CC(C)c1nn(-c2ccc(F)cc2F)c2nc(C(=O)NS(C)(=O)=O)cc(-c3ccc(N4CCC(C#N)CC4)nc3)c12 [Compound 140, 4-[6-(4-cyanopiperidin-1-yl)pyridin-3-yl]-1-(2,4-difluorophenyl)-N-(methanesulfonyl)-3-(propan-2-yl)-1H-pyrazolo[3,4-b]pyridine-6-carboxamide]	377.9%	381 nM	210.3%	734 nM
CC(C)c1nn(-c2ccc(F)cc2F)c2nc(C(=O)NS(C)(=O)=O)cc(-c3ccc(N4CCC(C#N)CC4)cc3)c12 [Compound 141, 4-[4-(4-cyanopiperidin-1-yl)phenyl]-1-(2,4-difluorophenyl)-N-(methanesulfonyl)-3-(propan-2-yl)-1H-pyrazolo[3,4-b]pyridine-6-carboxamide]	414.63%	221 nM	233.07%	287 nM
